Assay results as given in US20200187502A1, “MICROBIOCIDAL OXADIAZOLE DERIVATIVES” (SYNGENTA PARTICIPATIONS AG, priority 2017, published 2020).

Legend:
[1] = test system: Glomerella lacenarium (Colletotrichum lacenarium); assay: Fungicidal activity, liquid culture, cucumber preventative (anthracnose); assay type: cell-based; conditions: 20 ppm in the applied formulation, liquid culture in PDB, inhibition of growth measured photometrically 3 to 4 days after application, compared to untreated control, read-out: disease control
How it was run: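 Conidia from cryogenic storage were mixed into potato dextrose broth and added to DMSO solutions of test compound in microtiter plates. Plates were incubated at 24° C. and growth inhibition read photometrically 3 to 4 days after application, as percent antifungal activity versus untreated check.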

[2] = test system: Puccinia recondita f. Sp. Tritici; assay: Fungicidal activity, wheat leaf disc curative (brown rust); assay type: in vivo; conditions: foliar, 200 ppm in the applied formulation, wheat leaf segments cv. Kanzler, curative (applied 1 day after inoculation), compared to untreated control, 6 to 8 days after application, read-out: disease control
How it was run: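 Wheat cv. Kanzler leaf segments on agar were inoculated with fungal spore suspension, held dark at 19° C and 75% RH, then sprayed 1 day later with formulated compound diluted in water. Incubation continued at 19° C, 75% RH, 12 h light/12 h dark; percent disease control versus untreated was scored 6 to 8 days after application.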

[3] = test system: Puccinia recondita f. Sp. Tritici; assay: Fungicidal activity, wheat leaf disc preventative (brown rust); assay type: in vivo; conditions: foliar, 200 ppm in the applied formulation, wheat leaf segments cv. Kanzler, compared to untreated control, 7 to 9 days after application, read-out: disease control
How it was run: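 Wheat cv. Kanzler leaf segments on agar were sprayed with formulated compound in water, then inoculated with spores 1 day later. Incubated at 19° C, 75% rh, 12 h light/12 h dark; percent disease control versus untreated scored 7 to 9 days after application.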

CC(C)N(Cc1ccc(-c2noc(C(F)(F)F)n2)s1)C(=O)CC#N [Compound 4.49, 2-cyano-N-isopropyl-N-[[5-[5-(trifluoromethyl)-1,2,4-oxadiazol-3-yl]-2-thienyl]methyl]acetamide]
≥ 80%: inhibition of growth at 20 ppm [1] | pest or weed control at 200 ppm [2] | pest or weed control at 200 ppm [3]

CC1CC1C(=O)N(Cc1ccc(-c2noc(C(F)(F)F)n2)s1)C1CC1 (stereo not drawn) [Compound 5.43, N-cyclopropyl-2-methyl-N-[[5-[5-(trifluoromethyl)-1,2,4-oxadiazol-3-yl]-2-thienyl]methyl]cyclopropanecarboxamide]
≥ 80%: inhibition of growth at 20 ppm [1] | pest or weed control at 200 ppm [2] | pest or weed control at 200 ppm [3]

CN(Cc1ccc(-c2noc(C(F)(F)F)n2)s1)S(C)(=O)=O [Compound 6.27, N-methyl-N-[[5-[5-(trifluoromethyl)-1,2,4-oxadiazol-3-yl]-2-thienyl]methyl]methanesulfonamide]
≥ 80%: inhibition of growth at 20 ppm [1] | pest or weed control at 200 ppm [2] | pest or weed control at 200 ppm [3]

CC(=O)NCC(=O)N(Cc1ccc(-c2noc(C(F)(F)F)n2)s1)C1CC1 [Compound 4.53, 2-acetamido-N-cyclopropyl-N-[[5-[5-(trifluoromethyl)-1,2,4-oxadiazol-3-yl]-2-thienyl]methyl]acetamide]
≥ 80%: inhibition of growth at 20 ppm [1] | pest or weed control at 200 ppm [2] | pest or weed control at 200 ppm [3]

COC(C)C(=O)N(Cc1ccc(-c2noc(C(F)(F)F)n2)s1)C1CC1 (stereo not drawn) [Compound 4.14, N-cyclopropyl-2-methoxy-N-[[5-[5-(trifluoromethyl)-1,2,4-oxadiazol-3-yl]-2-thienyl]methyl]propanamide]
≥ 80%: inhibition of growth at 20 ppm [1] | pest or weed control at 200 ppm [2] | pest or weed control at 200 ppm [3]

CCC(=O)C(=O)N(CC)Cc1ccc(-c2noc(C(F)(F)F)n2)s1 [Compound 6.42, N-ethyl-2-oxo-N-[[5-[5-(trifluoromethyl)-1,2,4-oxadiazol-3-yl]-2-thienyl]methyl]butanamide]
≥ 80%: inhibition of growth at 20 ppm [1] | pest or weed control at 200 ppm [2] | pest or weed control at 200 ppm [3]

CCN(Cc1ccc(-c2noc(C(F)(F)F)n2)s1)C(=O)C1CCC1 [Compound 5.11, N-ethyl-N-[[5-[5-(trifluoromethyl)-1,2,4-oxadiazol-3-yl]-2-thienyl]methyl]cyclobutanecarboxamide]
≥ 80%: inhibition of growth at 20 ppm [1] | pest or weed control at 200 ppm [2] | pest or weed control at 200 ppm [3]

CCN(Cc1ccc(-c2noc(C(F)(F)F)n2)s1)C(=O)CC1CC1 [Compound 5.9, 2-cyclopropyl-N-ethyl-N-[[5-[5-(trifluoromethyl)-1,2,4-oxadiazol-3-yl]-2-thienyl]methyl]acetamide]
≥ 80%: inhibition of growth at 20 ppm [1] | pest or weed control at 200 ppm [2] | pest or weed control at 200 ppm [3]

COCCN(CCOC)C(=O)N(Cc1ccc(-c2noc(C(F)(F)F)n2)s1)C1CC1 [Compound 4.91, 1-cyclopropyl-3,3-bis(2-methoxyethyl)-1-[[5-[5-(trifluoromethyl)-1,2,4-oxadiazol-3-yl]-2-thienyl]methyl]urea]
≥ 80%: inhibition of growth at 20 ppm [1] | pest or weed control at 200 ppm [2] | pest or weed control at 200 ppm [3]

CN(Cc1ccc(-c2noc(C(F)(F)F)n2)s1)C(=O)C(=O)C(C)(C)C [Compound 6.48, N,3,3-trimethyl-2-oxo-N-[[5-[5-(trifluoromethyl)-1,2,4-oxadiazol-3-yl]-2-thienyl]methyl]butanamide]
≥ 80%: inhibition of growth at 20 ppm [1] | pest or weed control at 200 ppm [2] | pest or weed control at 200 ppm [3]
